Columns and labels:
[1] = Solubility test in pure water, room temperature, HPLC; assay type: physicochemical; conditions: thermodynamic from solid, excess sample, shaken at room temperature for 15 h, filtered
Description: The samples were taken into pure water, and an excess amount of samples were added, which were then shaked at room temperature for 15 h, and filtered, and detected by HPLC. HPLC test conditions: mobile phase: sodium octanesulfonate-potassium dihydrogen phosphate buffer solution (5.0 g of sodium octanesulfonate and 9.1 g of potassium dihydrogen phosphate were taken, and added into 1000 ml of water for dissolution, and the pH was adjusted to 3.0 with phosphoric acid)-acetonitrile (72:28); The detection wavelength was 264 nm; The flow rate was 1.5 ml per minute; The column temperature was 40° C.; Injection volume: 10 μl; Chromatographic column: octadecyl silane bonded silica gel as filler (CAPCELL PAK MG II C18, 4.6 mm×250 mm, 5 μm).

[2] = rats, FDA data for Mirapex ER (pramipexole dihydrochloride), NDA 22-421; cited from earlier work

solubility at 15 h [1]: 0.14 mg/mL
Structure (SMILES): CCCN[C@H]1CCc2nc(N)sc2C1 [Compound of formula I, (S)-2-amino-4,5,6,7-tetrahydro-6-propylamine-benzothiazole]
T1/2 [2]: 3.18 h
Tmax [2]: 0.5 h
